Assays:
[1] = molecular target: T1, Fructose-1,6-bisphosphatase 1 (Homo sapiens, UniProt P09467); experiment: Inhibition of human liver fructose-1,6-bisphosphatase in presence of fructose-2,6-bisphosphate
T1 sequence (P09467 whole entry): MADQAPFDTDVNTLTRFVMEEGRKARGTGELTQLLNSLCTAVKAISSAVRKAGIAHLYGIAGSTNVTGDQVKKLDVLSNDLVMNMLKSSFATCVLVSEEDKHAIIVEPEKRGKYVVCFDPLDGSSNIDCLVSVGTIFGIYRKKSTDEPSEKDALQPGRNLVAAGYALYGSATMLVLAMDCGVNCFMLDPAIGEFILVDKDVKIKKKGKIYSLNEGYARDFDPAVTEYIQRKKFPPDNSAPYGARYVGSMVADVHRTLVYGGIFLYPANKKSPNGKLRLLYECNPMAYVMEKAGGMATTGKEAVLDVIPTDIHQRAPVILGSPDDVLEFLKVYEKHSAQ

[2] = molecular target: T1, Fructose-1,6-bisphosphatase 1; experiment: Inhibition of human liver fructose-1,6-bisphosphatase
[3] = Half life in mouse at 9.68 mg/kg, po; format: ADME, organism-based; set-up: dose 9.68 mg/kg, route oral; conditions: in vivo
[4] = Bioavailability in mouse at 9.68 mg/kg, po; format: ADME, organism-based; conditions: in vivo
[5] = Dissociation constant, pKa of the compound; format: physicochemical
[6] = Lipophilicity, Log D at pH 7.4; format: physicochemical; conditions: buffer
[7] = Bioavailability in mouse at 10 mg/kg, po; format: ADME, organism-based; conditions: in vivo
[8] = Half life in mouse at 10 mg/kg, po; format: ADME, organism-based; set-up: dose 10 mg/kg, route oral; conditions: in vivo

| IC50 [1] [µM] | IC50 [2] [µM] | SMILES | also measured |
| --- | --- | --- | --- |
| 0.028 | 0.068 | Cc1cccc(S(=O)(=O)NC(=O)NCC/C=C/CCNC(=O)NS(=O)(=O)c2cccc(C)c2)c1 |  |
| 0.012 | 0.095 | Cc1cccc(S(=O)(=O)NC(=O)NCCC#CCCNC(=O)NS(=O)(=O)c2cccc(C)c2)c1 |  |
| 0.016 | 0.028 | O=C(NC[C@H]1CC[C@H](CNC(=O)NS(=O)(=O)c2cccc(Cl)c2)CC1)NS(=O)(=O)c1cccc(Cl)c1 |  |
| 0.264 | 2.75 | O=C(NCCCCNC(=O)NS(=O)(=O)c1cccc(Cl)c1)NS(=O)(=O)c1cccc(Cl)c1 |  |
| 0.019 | 0.05 | O=C(NCCCCCNC(=O)NS(=O)(=O)c1cccc(Cl)c1)NS(=O)(=O)c1cccc(Cl)c1 |  |
| 0.022 | 0.072 | Cc1cccc(S(=O)(=O)NC(=O)NCCCCCNC(=O)NS(=O)(=O)c2cccc(C)c2)c1 |  |
| 0.151 | 0.827 | Cc1cccc(S(=O)(=O)NC(=O)NCCOCCNC(=O)NS(=O)(=O)c2cccc(C)c2)c1 |  |
| 0.017 | 0.045 | O=C(NCCCCCCCCNC(=O)NS(=O)(=O)c1cccc(Cl)c1)NS(=O)(=O)c1cccc(Cl)c1 |  |
| 0.014 | 0.04 | O=C(NCC/C=C/CCNC(=O)NS(=O)(=O)c1cccc(Cl)c1)NS(=O)(=O)c1cccc(Cl)c1 |  |
| 0.008 |  | O=C(NCCCCCCNC(=O)NS(=O)(=O)c1cccc(Cl)c1)NS(=O)(=O)c1cccc(Cl)c1 | half-life [3]: 1.83 h; bioavailability [4]: 108%; pKa [5]: 5.35; logD [6]: -0.93 |
| 0.012 | 0.024 | Cc1cccc(S(=O)(=O)NC(=O)NCCCCCCNC(=O)NS(=O)(=O)c2cccc(C)c2)c1 |  |
| 134 | 196 | CCCCNC(=O)NS(=O)(=O)c1cccc(Cl)c1 |  |
| 234 | 690 | CCCNC(=O)NS(=O)(=O)c1cccc(Cl)c1 |  |
| 0.004 |  | O=C(NCCCCCCCNC(=O)NS(=O)(=O)c1cccc(Cl)c1)NS(=O)(=O)c1cccc(Cl)c1 | pKa [5]: 5.12; logD [6]: -0.43 |
| 0.005 | 0.012 | Cc1cccc(S(=O)(=O)NC(=O)NCCCCCCCNC(=O)NS(=O)(=O)c2cccc(C)c2)c1 | bioavailability [7]: 100%; half-life [8]: 3 h |
| 13.7 | 43.8 | O=C(NCCCNCCCNC(=O)NS(=O)(=O)c1cccc(Cl)c1)NS(=O)(=O)c1cccc(Cl)c1 |  |
| > 100 | > 100 | Cc1cccc(S(=O)(=O)NC(=O)NCCNCCNC(=O)NS(=O)(=O)c2cccc(C)c2)c1 |  |

| IC50 [1] [µM] | IC50 [2] [µM] | SMILES | also measured |
| --- | --- | --- | --- |
| 0.012 | 0.029 | Cc1cccc(S(=O)(=O)NC(=O)NCCSSCCNC(=O)NS(=O)(=O)c2cccc(C)c2)c1 |  |
| 0.057 | 0.125 | O=C(NCCCOCCCNC(=O)NS(=O)(=O)c1cccc(Cl)c1)NS(=O)(=O)c1cccc(Cl)c1 |  |
| 86.8 | 178 | CCCCNC(=O)NS(=O)(=O)c1cccc(C)c1 |  |
| 10.6 | 20.5 | Cc1cccc(S(=O)(=O)NC(=O)NCCS)c1 |  |
| 0.004 | 0.006 | O=C(NCc1ccc(CNC(=O)NS(=O)(=O)c2cccc(Cl)c2)cc1)NS(=O)(=O)c1cccc(Cl)c1 |  |
| 0.002 | 0.003 | Cc1cccc(S(=O)(=O)NC(=O)NCc2ccc(CNC(=O)NS(=O)(=O)c3cccc(C)c3)cc2)c1 |  |
| 0.006 | 0.012 | Cc1cccc(S(=O)(=O)NC(=O)NCc2cccc(CNC(=O)NS(=O)(=O)c3cccc(C)c3)c2)c1 |  |
| > 100 | > 100 | Cc1cccc(S(=O)(=O)NC(=O)NCCNC(=O)NS(=O)(=O)c2cccc(C)c2)c1 |  |
|  | 1.6 | Nc1ccc(S(=O)(=O)NC(=O)NCCS)cc1 |  |
| 38.5 | > 100 | Cc1cccc(S(=O)(=O)NC(=O)NCCCNC(=O)NS(=O)(=O)c2cccc(C)c2)c1 |  |
| 277 | 515 | CSCCNC(=O)NS(=O)(=O)c1cccc(Cl)c1 |  |
| 320 | > 1000 | CCCNC(=O)NS(=O)(=O)c1cccc(C)c1 |  |
| 0.018 | 0.07 | Cc1cccc(S(=O)(=O)NC(=O)NCCSCCNC(=O)NS(=O)(=O)c2cccc(C)c2)c1 |  |
| 0.008 | 0.035 | Cc1cccc(S(=O)(=O)NC(=O)NCCCCCCCCNC(=O)NS(=O)(=O)c2cccc(C)c2)c1 |  |
| 0.01 | 0.055 | O=C(NCCSSCCNC(=O)NS(=O)(=O)c1cccc(Cl)c1)NS(=O)(=O)c1cccc(Cl)c1 |  |
| 0.542 | 3.4 | Cc1cccc(S(=O)(=O)NC(=O)NCCCCNC(=O)NS(=O)(=O)c2cccc(C)c2)c1 |  |
